Patent US20240115654A1, “INTRAVENOUS ADMINISTRATION OF ENGINEERED ANTIMICROBIAL AMPHIPHILIC PEPTIDES” (priority 2021, published 2024)
Read-outs that look alike come from different tables or passages of the source. Peptide text beside a SMILES is read from it.

From the text: All subjects who met eligibility criteria were confined to the clinical research unit from […] through Day 3. At admission, physical examination, vital signs, 12 lead ECG and weight were obtained, medical and medication history were updated if necessary, safety blood tests (hematology and chemistry), urinalysis, urine drug screen and an alcohol breath test were repeated and a urine pregnancy test was done for women of childbearing potential.
At each dose level, there were 2 sentinel subjects, (1 active, 1 placebo), who were dosed at least 48 hours in advance of the other subjects in their respective group. Following review of safety data, including physical examination, vital signs, and review of adverse events from the first 2 subjects, enrolment in the cohort continued.
A 12-lead ECG was performed on Day 1, within 60 minutes of infusion start (in triplicate), mid-way through the infusion, at the completion of the infusion, 30 minutes after completion of the infusion and at various timepoints following the end of the infusion.
Vital signs were recorded within 60 minutes pre-dose, at the mid-point of the infusion and post dose vitals were assessed at completion of the infusion, 0.5, 1, 2, 3, 4, 6, 9, 12, 24 and 48 hours post dose, after at least 3 minutes of rest in supine position.
Subjects returned to the study center 7 days after dosing, for the termination visit. A full physical examination, vital signs and weight were obtained, concomitant medications were updated if necessary, safety blood specimens (haematology and chemistry, PT and aPTT) and urine were collected for urinalysis and urine drug screening. A serum pregnancy test was done for women of childbearing potential and a 12-lead ECG was performed.
In this study dose limiting toxicity (DLT) was defined as any drug related ≥Grade 3 AEs occurring despite optimal therapeutic interventions (which included but were not limited to allergic/hypersensitivity reactions, dermatological reactions/infusion site reactions, haematological toxicities such as neutropenia, thrombocytopenia and anaemia and clinical chemistry abnormalities) experienced up to Day 7 (Termination Visit).
(§1) All subjects who received any amount of study drug were included in the safety analysis (Safety population).
The study was a double blinded, randomized, placebo-controlled study. The placebo administered was 0.9% sodium chloride.
On Day 1 (day of dosing), subjects were randomly assigned either peptide IV or Placebo IV. At each dose level, there were 2 sentinel subjects, (1 active, 1 placebo), who were dosed at least 48 hours in advance of the other subjects in their respective group. Following review of safety data, including physical examination, vital signs, and review of adverse events from the first 2 subjects, enrolment in the cohort continued. All subjects who met eligibility criteria were confined to the clinical research unit from Day −2 through Day 3. At admission, physical examination, vital signs, 12 lead ECG and weight were obtained, medical and medication history were updated if necessary, safety blood tests (hematology and chemistry), urinalysis, urine drug screen and an alcohol breath test were repeated and a urine pregnancy test was done for women of childbearing potential.
as §1

[1] = 0.05 mg/kg IV 1 hr infusion (N = 6)
[2] = 0.5 mg/kg IV 2 hr infusion (N = 6)
[3] = Cohort 1: 0.05 mg/kg IV 1-hr infusion (N = 6)

CC(C)[C@H](NC(=O)[C@H](Cc1c[nH]c2ccccc12)NC(=O)[C@H](CCCNC(=N)N)NC(=O)[C@H](CCCNC(=N)N)NC(=O)[C@@H](NC(=O)[C@@H](NC(=O)[C@H](CCCNC(=N)N)NC(=O)[C@@H](NC(=O)[C@@H](NC(=O)[C@H](CCCNC(=N)N)NC(=O)[C@H](CCCNC(=N)N)NC(=O)[C@H](Cc1c[nH]c2ccccc12)NC(=O)[C@@H](NC(=O)[C@H](CCCNC(=N)N)NC(=O)[C@H](CCCNC(=N)N)NC(=O)[C@@H](NC(=O)[C@H](CCCNC(=N)N)NC(=O)[C@H](CCCNC(=N)N)NC(=O)[C@@H](NC(=O)[C@H](Cc1c[nH]c2ccccc12)NC(=O)[C@H](CCCNC(=N)N)NC(=O)[C@@H](N)CCCNC(=N)N)C(C)C)C(C)C)C(C)C)C(C)C)C(C)C)C(C)C)C(C)C)C(=O)N[C@@H](CCCNC(=N)N)C(=O)N[C@@H](CCCNC(=N)N)C(N)=O [SEQ ID NO: 1] (H-RRWVRRVRRVWRRVVRVVRRWVRR-NH2)
Related TEAE Abdominal [?], n participants [1]: 0 | Related TEAE Blood and lymphatic system disorders, n participants [1]: 0 | Related TEAE Co[?], n participants [1]: 0 | Related TEAE D[?] (r32, GI SOC), n participants [1]: 0 | Related TEAE F[?], n participants [1]: 0 | Related TEAE Gastrointestinal disorders, n participants [1]: 0 | Related TEAE In[?] related reaction, n participants [1]: 0 | Related TEAE Infusion [?] reaction, n participants [1]: 0 | Related TEAE Injury, poi[?] procedural complications, n participants [1]: 0 | Related TEAE M[?] and connective tissure disorders, n participants [1]: 0 | Related TEAE Myalgia, n participants [1]: 0 | Related TEAE Nervous system disorders, n participants [1]: 0 | Related TEAE O[?] (r25, vascular SOC), n participants [1]: 0 | Related TEAE O[?] (r38, respiratory SOC), n participants [1]: 0 | Related TEAE P[?] (r26, vascular SOC), n participants [1]: 0 | Related TEAE Pain in extremity, n participants [1]: 0 | Related TEAE Respiratory, thoracic and m[?] disorders, n participants [1]: 0 | Related TEAE T[?], n participants [1]: 0 | Related TEAE Vascular disorders, n participants [1]: 0 | Related TEAE Ve[?], n participants [1]: 0 | Related TEAE [?] headache, n participants [1]: 0 | TEAE A[?] (r19, skin SOC), n participants [1]: 0 | TEAE A[?] (r46, GI SOC), n participants [1]: 0 | TEAE Back pain, n participants [1]: 0 | TEAE Blood and lymphatic system disorders, n participants [1]: 0 | TEAE Constipation, n participants [1]: 0 | TEAE D[?] (r54), n participants [1]: 0 | TEAE D[?] contact, n participants [1]: 0 | TEAE Dia[?], n participants [1]: 0 | TEAE Headache, n participants [1]: 0 | TEAE In[?] (r53), n participants [1]: 0 | TEAE Injury, [?] and procedural complications, % participants [1]: 50.0% | TEAE Injury, [?] and procedural complications, M occurrences [1]: 3 | TEAE Injury, [?] and procedural complications, n participants [1]: 3 | TEAE Mu[?], n participants [1]: 0 | TEAE Musculoskeletal and connective tissue disorders, n participants [1]: 0 | TEAE My[?], n participants [1]: 0 | TEAE O[?] (r37, vascular SOC), n participants [1]: 0 | TEAE O[?] pain, n participants [1]: 0 | TEAE Pain [?], n participants [1]: 0 | TEAE Participants with at least one [?], M occurrences [1]: 7 | TEAE Participants with at least one [?], n participants [1]: 5 | TEAE R[?] (r20, skin SOC), n participants [1]: 0 | TEAE Respiratory, thoracic and [?] disorders, n participants [1]: 0 | TEAE Severity Grade 1, occurrences (M) [1]: 7 | TEAE Severity Grade 1, participants % [1]: 83.3% | TEAE Severity Grade 1, participants n [1]: 5 | TEAE Severity Grade 2, participants n [1]: 0 | TEAE Skin and [?] tissue [?], n participants [1]: 0 | TEAE Skin reaction, n participants [1]: 0 | TEAE Thermal [?], n participants [1]: 0 | TEAE V[?] (r24, general SOC), n participants [1]: 0 | TEAE V[?] access [?] (r10), % participants [1]: 50.0% | TEAE V[?] access [?] (r10), M occurrences [1]: 3 | TEAE V[?] access [?] (r10), n participants [1]: 3 | TEAE V[?] puncture site [?] (r28), n participants [1]: 0 | TEAE Vascular access site [?] (r11), n participants [1]: 0 | TEAE Vascular access site [?] (r12), n participants [1]: 0 | TEAE Vascular access site [?] (r15), n participants [1]: 0 | TEAE Vascular disorders, n participants [1]: 0 | TEAE [?] (r13, under Injury SOC), n participants [1]: 0 | TEAE [?] (r25, general SOC), n participants [1]: 0 | TEAE [?] (r26, general SOC), n participants [1]: 0 | TEAE [?] (r38, vascular SOC), n participants [1]: 0 | TEAE [?] (r39, vascular SOC), n participants [1]: 0 | TEAE [?] (r44, nervous SOC), n participants [1]: 0 | TEAE [?] (r52, blood SOC), n participants [1]: 0 | TEAE, occurrences (M) [1]: 7 | Participants Reporting at least One TEAE, % [2]: 100% | Related TEAE Blood and lymphatic system disorders, n participants [2]: 0 | Related TEAE Co[?], n participants [2]: 0 | Related TEAE F[?], n participants [2]: 0 | Related TEAE In[?] related reaction, n participants [2]: 0 | Related TEAE Injury, poi[?] procedural complications, n participants [2]: 0 | Related TEAE M[?] and connective tissure disorders, n participants [2]: 0 | Related TEAE Myalgia, n participants [2]: 0 | Related TEAE Nervous system disorders, n participants [2]: 0 | Related TEAE O[?] (r25, vascular SOC), n participants [2]: 0 | Related TEAE O[?] (r38, respiratory SOC), n participants [2]: 0 | Related TEAE P[?] (r26, vascular SOC), n participants [2]: 0 | Related TEAE Pain in extremity, n participants [2]: 0 | Related TEAE Respiratory, thoracic and m[?] disorders, n participants [2]: 0 | Related TEAE T[?], n participants [2]: 0 | Related TEAE V[?] (r18), n participants [2]: 0 | Related TEAE Vascular disorders, n participants [2]: 0 | Related TEAE [?] headache, n participants [2]: 0 | TEAE A[?] (r19, skin SOC), n participants [2]: 0 | TEAE Abdominal pain, n participants [2]: 0 | TEAE Blood and lymphatic system disorders, n participants [2]: 0 | TEAE Constipation, n participants [2]: 0 | TEAE D[?] contact, n participants [2]: 0 | TEAE Dizziness, n participants [2]: 0 | TEAE Gastrointestinal disorders, M occurrences [2]: 2 | TEAE Gastrointestinal disorders, n participants [2]: 1 | TEAE Injury, [?] and procedural complications, M occurrences [2]: 4 | TEAE Injury, [?] and procedural complications, n participants [2]: 3 | TEAE Mu[?], n participants [2]: 0 | TEAE My[?], n participants [2]: 0 | TEAE O[?] (r37, vascular SOC), n participants [2]: 0 | TEAE O[?] pain, n participants [2]: 0 | TEAE P[?] (r43, nervous SOC), n participants [2]: 0 | TEAE Respiratory, thoracic and [?] disorders, n participants [2]: 0 | TEAE Severity Grade 1, occurrences (M) [2]: 12 | TEAE Severity Grade 1, participants % [2]: 100% | TEAE Severity Grade 1, participants n [2]: 6 | TEAE Severity Grade 2, occurrences (M) [2]: 3 | TEAE Severity Grade 2, participants n [2]: 2 | TEAE Skin and [?] tissue [?], M occurrences [2]: 3 | TEAE Skin and [?] tissue [?], n participants [2]: 2 | TEAE Skin reaction, M occurrences [2]: 2 | TEAE Skin reaction, n participants [2]: 1 | TEAE Thermal [?], n participants [2]: 0 | TEAE V[?] puncture site [?] (r27), n participants [2]: 0 | TEAE V[?] puncture site [?] (r28), n participants [2]: 0 | TEAE Vascular access site [?] (r15), n participants [2]: 0 | TEAE Vascular disorders, n participants [2]: 0 | TEAE [?] (r13, under Injury SOC), n participants [2]: 0 | TEAE [?] (r26, general SOC), n participants [2]: 0 | TEAE [?] (r38, vascular SOC), n participants [2]: 0 | TEAE [?] (r39, vascular SOC), n participants [2]: 0 | TEAE [?] (r44, nervous SOC), n participants [2]: 0 | TEAE [?] (r52, blood SOC), n participants [2]: 0 | TEAE, occurrences (M) [2]: 15 | overall safety and tolerability (0.05 to 0.5 mg/kg, drug concentration below […] and rate of infusion below 25 mg/hr): safe and well tolerated | Number of Participants Reporting at least: Onc TEAE Leading to Study Withdrawal, n (%) [3]: 0 | Number of Participants Reporting at least: One Dose-Limiting Toxicity, n (%) [3]: 0 | Number of Participants Reporting at least: One Related TEAE, n (%) [3]: 1 (16.7%) | Number of Participants Reporting at least: One Serious TEAE, n (%) [3]: 0 | Number of Participants Reporting at least: One TEAE Leading to Study Drug Discontinuation, n (%) [3]: 0 | Number of Participants Reporting at least: One TEAE with Common Terminology Criteria for Adverse Events (CTCAE) Toxicity ≥ Grade 3, n (%) [3]: 0 | Number of Participants Reporting at least: One TEAE, n (%) [3]: 5 (83.3%) | One Related TEAE, m [3]: 1 | One TEAE, m [3]: 7 | Participants With At Least 1 TEAE, n (%) [3]: 5 (83.3%)
